In patent US20220183952A1, “FORMULATION FOR THE TOPICAL TREATMENT OF THE SKIN AND RELATED USE” (SVAS BIOSANA SPA, priority 2018, published 2022):

Assays:
[1] = FRAP (Ferric reducing antioxidant power) assay
[2] = TEAC (Trolox equivalent antioxidant capacity) assay
[3] = Superoxide radical scavenging activity

SMILES	FRAP [1] [Mmol Fe2+/g]	TEAC [2] [mmol TE/g]	Superoxide radical scavenging activity, EC50 [3] [mg/L]
Cc1cc(C(C)(C)C)c(O)c(C(C)(C)C)c1 [BHT, hydroxytoluene butylate]	0.416 ± 0.020	0.467 ± 0.005	–
O=C1O[C@H]([C@@H](O)CO)C(O)=C1O [Vitamin C, vitamin C]	6.57 ± 1.00	7.23 ± 0.28	60 ± 0
